In US6576641B2, “Fused heterocyclic compounds and their use in the treatment of neurodegenerative diseases” (Neurosearch A/S, priority 1999, dated 2003):

Columns and labels:
[1] = test system: differentiated PC12 cells; assay: Survival of differentiated PC12 cells after NGF withdrawal, cell viability by reduction of MTS; assay type: cell-based
Description: (§1) Survival of Differentiated PC12 Cells after NGF Withdrawal
(§2) PC12 cells are considered models for […] neurons for the investigation of neuronal differentiation and apoptosis.
(§3) PC12 cells were seeded in collagen coated 96 well plates at a cell density of 8000/cm^2 in DMEM with 7.5% FCS, 7.5% HS and 2 nM NGF and cultured for 6 days.
(§4) The medium was then changed to DMEM without serum supplemented with the compound of the test compound in the concentrations indicated in FIG. 1. As a positive control, parallel wells receiving serum-free DMEM without addition of vehicle or 3 nM NGF were included.
After 4 days of incubation, cell viability was evaluated by reduction of MTS using the CellTiter 96 AQueous Non-radioactive Cell Proliferation Assay (available from Promega).
Data are expressed as % of the response seen with 3 nM NGF, and corrected for residual MTS reduction activity in the parallel serum-free cultures, cf. FIG. 1A.

[2] = test system: differentiated PC12 cells; assay: Survival of differentiated PC12 cells after NGF withdrawal, cell viability by CyQUANT; assay type: cell-based; conditions: differentiated PC12 cells in serum-free medium, after 4 days; FIG. 1B
Description: as §1, §2, §3, §4
In another assay cell viability after 4 days was evaluated by using the CyQUANT Cell Proliferation Kit from Molecular Probes. CyQUANT might give a better correlation with the actual cell number of the culture than MTS, which rather reflects the total metabolic activity of the culture, cf. FIG. 1B.

## CCCCN1CCc2oc(-c3ccc([N+](=O)[O-])cc3)cc2C1.O=C(O)/C=C/C(=O)O [Compound 1, 6-(4-Nitrophenyl)-furano[3,2-c]-N-butyl-1,2,3,4-tetrahydropyridine Fumaric Acid Salt]
[1]; at nanomolar concentrations, stated for both MTS and CyQUANT experiments
  rescue of differentiated PC12 cells in serum-free medium: potent dose-dependent rescue
[1]; differentiated PC12 cells in serum-free medium, 4 days of incubation, % of the response seen with 3 nM NGF, corrected for serum-free cultures, FIG. 1A
  maximal protection (cell viability, MTS): approximately 30%
[1]; differentiated PC12 cells in serum-free medium, tested 1 nM to 10 μM, stated for both MTS and CyQUANT experiments
  concentration giving maximal protection: 100 nM
[2]
  maximal rescue (cell survival, CyQUANT): approximately 50%
